Assay results from patent US5126258A (priority 1988, dated 1992).
Read-outs that look alike come from different tables or passages of the source.

Legend:
[1] = target: monoclonal antibody P3 6D4; experiment: Kinetics and inhibition of catalytic ester hydrolysis by monoclonal antibody P3 6D4, spectrophotometric at 245 nm; assay type: biochemical, mouse; conditions: for Ki: substrate Compound 7, read-out: inhibition constant ki, catalytic reaction with Compound 7
Protocol: FIG. 4 illustrates a Lineweaver-Burk plot for the hydrolysis of Compound 7 by anti-Compound 4 monoclonal antibody from hybridoma P3 6D4. Velocities were determined spectrophotometrically by measuring initial rates during the first linear portion of the reaction as described with reference to Table 2. The substrate concentrations were corrected for amounts consumed during initial equilibration. ( ) No inhibitor present. ( ) Inhibited by 50 nM phosphonate (Compound 3). ( ) Inhibited by 100 nM phosphonate (Compound 3).
In particular, an exemplary monoclonal receptor was produced by the standard hybridoma technology of Kohler et al., Nature, 256, 495 (1975). Specifically, female 129G1X^+ mice were immunized by intraperitoneal injection with an inoculum of 100 micrograms of conjugate (e.g., Compound 4i bound to KLH) in 300 microliters of a 1:1 mixture of phosphate buffered saline (PBS) pH 7.4 and complete Freund's adjuvant. Two weeks later, the mice were again injected in a like manner with 50 micrograms of the foregoing conjugate in 300 microliters of a 1:1 mixture of PBS (pH 7.4) and 10 mg/ml alum. After an additional eight weeks, the mice were immunized intravenously with 50 micrograms of the conjugate in 200 microliters of PBS (pH 7.4). The spleens were removed from the mice 4 days later, and the spleen cells were fused to myeloma cells.
Reaction kinetics were measured spectrophotometrically by following the absorption change at 245 nanometers. […] Kinetic parameters obtained with these substrates are shown in Table 2 along with the inhibition constants obtained with phosphonate (Compound 3). Under these conditions, the acceleration above the background rate is about 960-fold for Compound 7 and about 200-fold for Compound 8 (corrected for the background hydrolysis rate).
*The kinetic parameters shown in Table 2 are for the hydrolysis of esters
(Compounds 7 and 8) by monoclonal antibody P3 6D4. A PerkinElmer lambda 4
spectrophotometer, equipped with thermostatted cell holder, was used to
measure absorption changes at 245 nm. Cells containing the substrate at
concentrations of 0.5 to 50 micromolar in phosphate buffer (50 mM, pH 8.0
were preequilibrated at 25 degrees C. The concentration of active IgG in
stock solution was found by reacting with the coumarin ester (Compound 5)
and measuring the yield of hydroxycoumarin by fluorescence. The kinetic
run was initiated by addition of an aliquot of the antibody stock solutio
(in 50 mM phosphate buffer, pH 8.0) calculated to give 100 nM IgG. The
mixture was allowed to equilibrate for 2 to 3 minutes and the rate was
then measured during the subsequent 10 minutes. The absorption change for
complete hydrolysis was determined by treatment with esterase. Kinetic
parameters were obtained from L ineweaverBurk plots (see FIG. 4).
Inhibition constants were determined from a plot of the slopes with at
least four inhibitor concentrations of Compound 3. The data were analyzed

[2] = target: monoclonal receptor P3 6D4; experiment: Stoichiometric transacylation reaction of monoclonal receptor P3 6D4 with coumarin ester Compound 5 (fluorescence) and its inhibition/inactivation; assay type: biochemical, mouse
Protocol: A Perkin-Elmer LS-5 fluorescence spectrometer was operated at a fixed wavelength, using 355 nanometers (nm) for excitation and measuring the emission at 455 nm. A stock solution of the coumarin ester 5 was prepared in dioxane and was diluted to the desired concentrations in Tris-HCl (50 mM, pH 7) or sodium phosphate (50 mM, pH 4-9).
Reactions were run at 23 degrees C and were initiated by the addition of an aliquot of antibody solution (1 mg/ml) to substrate solutions to provide a final protein concentration of 100 nM. Final fluorescence values were determined by hydrolysis of the substrate with pig liver esterase. The observed reaction rate was corrected for spontaneous hydrolysis. Reaction kinetics were studied by measuring initial rates under pseudo-first order conditions. Active protein concentration was extrapolated from fluorescence values at the end of the reaction. The kinetic parameters were obtained by fitting the data to a hyperbolic curve and from double reciprocal plots. Inhibition constants were determined from the Lineweaver-Burk plot data with at least five inhibitor concentrations. All the data were studied by a least squares analysis.
Antibody preparations were inactivated without introducing fluorescent products by the addition of the activated ester (Compound 8) in dioxane to a solution of the IgG (5 mg/ml) in Tris-HCl (50 mM, pH 6.5) at a ratio of 5 moles of the ester (Compound 8) per mole IgG.
Protein modification was performed in an analogous manner, by the addition of a dioxane solution of the reagent at a known concentration to the antibody. The solution was incubated for 30 minutes before filtration through Sephadex G-25. The activity remaining was compared to control samples. Aliquots of IgG (5 mg/ml) inactivated with the ester (Compound 8) were diluted with four volumes of phosphate buffer (50 mM, pH 4-9, at intervals of 1 pH unit). Any pH change was recorded, and the sample was stored at 4 degrees C for 24 hours.
Initially, the ester was used at a concentration that was about four-fold greater than that of the protein, and the mixture was incubated at pH 7.2 for 10 minutes. Any change in fluorescence above background was noted.
The termination of the reaction is noted by the return of the rate of fluorescence increase to the background level.

[3] = substrate Compound 5, estimated, read-out: inhibition constant, stoichiometric reaction with Compound 5

| Compound | Ki [1] | Ki [2, 3] | Ki ([2]; summary, kinetic parameters at low pH values, read-out: Ki (inhibition of antibody esterolysis)) | effect of additive on rate of reaction of Compound 7 with antibody ([1]; picolinic acid alone or picolinic acid and zinc chloride) | effect of additive on antibody-enhanced esterolysis of Compound 5 ([2]; up to 100 micromolar added zinc and picolinic acid, EDTA concentration not given) |
| --- | --- | --- | --- | --- | --- |
| CC(=O)Nc1ccc(OP(=O)(O)Cc2ccc(NC(=O)C(F)(F)F)cc2)c(CNC(=O)c2cccc(C(=O)O)n2)c1 [Compound 3i] | 160 nM | 35 nM | 35 nM | – | – |
| CC(=O)Nc1ccc(OP(=O)(O)Cc2ccc(NC(=O)C(F)(F)F)cc2)cc1 [Compound 1i] | 800 nM | 100 nM | – | – | – |
| O=C(O)c1ccccn1 [picolinic acid, reference compound] | – | – | – | no effect | No effect |
